Source: US20090036461A1, “Use of Azabicyclo Hexane Derivatives” (priority 2005, published 2009)
Entries after “also recorded” stand apart in the source; their conditions may differ.

Columns and labels:
[1] = target: D3 (Homo sapiens, UniProt P35462); test: functional pKi (fpKi) at D3, comparison of separated enantiomers; assay type: biochemical; settings: difference in fpKi between the two separated enantiomers of the same example
[2] = test system: Female Sprague Dawley rats; test: stress-induced food intake, animal model for binge eating (diet restriction cycles + foot shock); assay type: in vivo
From the text: Dieting is the strongest predictor of overeating in response of stress. In this specific case, binge eating or binge/purge behaviours are recognized as key features of the human diseases (bulimia nervosa or anorexia, respectively). Two critical factors seem to modulate the production of binge eating: a history of food restriction and access of high palatable (HP) food (dense in fat and sugar) and the interaction with environmental stress. Based on these premises, preclinical models can be developed to explore the potential therapeutic effect of test compounds on binge eating. One model which may be used is described by Hagan et al (Hagan, M. M. et al., Physiol and Beh 77 (2002): 45-54).
Slight modifications such as those below may be applied to their model, for example: • Instrument to deliver FS: Passive Avoidance (Gemini Avoidance System, Coubourn Instrument, San Diego) may be used instead of the 4 closed runways with metal bar floors (Coulbourn Instruments Habitest System, Allentown, Pa.). • Refeeding: 4 days instead of 6 days • HP food: Baiocchi® (Barilla) instead of Oreo® biscuits • For the submission of the animals to the pharmacological treatment, see: Placidi et al., Int J Eat Disord 2004 36 (3) 328-41
Based on the model by Hagan et al, and incorporating the above changes, a model for binge eating may be set up as follows. Female Sprague Dawley rats (7 weeks old) can be single housed at 21±1 C and under a 12 h/12 h light/dark cycle (dark phase: 18:00-06:00) for all the period of the experiment. Before beginning, rats can be habituated to these conditions for 7 days. The rats can then be divided into 2 groups (16 animals/group). One group may take food ad lib (non restricted group: NR) for the 24 days of the experiment, while the other (Restricted Group: R) may receive a restricted diet (66% of the quantity food intake that the other control group was eating) during 4 days, and eat ad lib for the following 4 days. This cycle can be repeated 3 times. Following the last day of refeeding, each group can be subdivided in two. Eight animals of group NR and 8 animals of group R can receive a stress stimulus (4 Foot Shocks (FS) of 0.6 mA separated by 15 sec intervals) while the other 2 subgroups can remain in the same cage where FS is delivered for the same period of time, but without receiving the FS (no shocked: NS). The 4 groups are S/NR, NS/NR, S/R and NS/R. Immediately following time in the shock apparatus, rats can be submitted to a pharmacological treatment (administration of the test compound or of the vehicle) and then be returned to the animal colony. A pre-measured amount of pellets or HP food (Baiocchie) can be put in each cage, and food intake measured after 4 h. Food intake can be expressed in kcal.
Rationale—The effects of the title compound, prepared in an analogous way with Example 123, were tested in the animal model discussed above. The aim of the present study was to assess the effect of this compound in animals that received 3 cycles of diet (restricted:R) and stress (shocked) conditions similar to binge eating in humans.
Methods—Female Sprague Dawley rats (7-week old) were single housed at 21±1° C. and under a 12 h/12 h light/dark cycle (dark phase: 18:00-06:00) for all the entire experimental period. Rats received a restricted diet (66% of the food intake vs. control group) during 4 days, and ate ad libitum for the following 4 days. This cycle was repeated 3 times. Additionally, two other groups were eating ad libitum (not restricted: NR) and received the shock (NR/S). Following the last day of refeeding, the animals received a stress stimulus (4 Foot Shocks (FS) of 0.6 mA separated by 15 sec intervals) and received vehicle or the title compound (0.03, 0.3 or 3 mg/kg i.p.) immediately after the shock. These were the S/R (shocked/Restricted) rats. The S/NR rats received the shock and vehicle or the title compound (prepared in an analogous way with Example 123; 3 mg/kg i.p.) in the same way as the S/R groups. […]

[3] = S/NR (shocked/not restricted) rats, 3 mg/kg i.p. after foot shock
[4] = S/R (shocked/restricted) rats, 0.03 mg/kg i.p. after foot shock
[5] = S/R (shocked/restricted) rats, 0.3 mg/kg i.p. after foot shock
[6] = S/R (shocked/restricted) rats, 3 mg/kg i.p. after foot shock

Sequence of D3 (P35462 whole entry): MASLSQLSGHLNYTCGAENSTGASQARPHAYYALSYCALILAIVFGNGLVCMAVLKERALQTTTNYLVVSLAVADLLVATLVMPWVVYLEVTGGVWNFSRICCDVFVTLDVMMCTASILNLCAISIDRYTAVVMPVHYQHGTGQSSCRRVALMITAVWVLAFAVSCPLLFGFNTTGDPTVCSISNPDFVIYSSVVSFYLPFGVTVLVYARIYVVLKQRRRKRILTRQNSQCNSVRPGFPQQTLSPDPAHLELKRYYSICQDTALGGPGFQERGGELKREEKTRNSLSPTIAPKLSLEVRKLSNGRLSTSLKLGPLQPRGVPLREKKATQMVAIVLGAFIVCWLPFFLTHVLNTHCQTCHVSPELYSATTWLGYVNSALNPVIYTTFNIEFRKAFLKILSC

SMILES | fpKi (D3) higher than the other enantiomer [1] [log-unit] | also measured
COc1ccc([C@]23C[C@H]2CN(CCCSc2nnc(-c4cccc5nc(C)ccc45)n2C)C3)cc1 (single isomer, unassigned) [Example 1 Enantiomer 1] | > 1 | –
Cc1ccc2c(-c3nnc(SCCCN4C[C@@H]5C[C@]5(c5ccc(Br)cc5)C4)n3C)cccc2n1 (single isomer, unassigned) [Example 2 Enantiomer 2] | > 1 | –
Cc1ccc2c(-c3nnc(SCCCN4C[C@@H]5C[C@]5(c5ccccc5)C4)n3C)cccc2n1 (single isomer, unassigned) [Example 3 Enantiomer 2] | > 1 | –
Cc1ccc2c(-c3nnc(SCCCN4C[C@@H]5C[C@]5(c5ccc(Cl)c(Cl)c5)C4)n3C)cccc2n1 (single isomer, unassigned) [Example 4 Enantiomer 1] | > 0.6 | –
Cc1ncoc1-c1nnc(SCCCN2C[C@@H]3C[C@]3(c3ccc(Br)cc3)C2)n1C (single isomer, unassigned) [Example 9 Enantiomer 1] | > 1 | –
Cc1ncoc1-c1nnc(SCCCN2C[C@@H]3C[C@]3(c3ccc(Cl)cc3)C2)n1C (single isomer, unassigned) [Example 20 Enantiomer 1] | > 1 | –
Cc1ncoc1-c1nnc(SCCCN2C[C@@H]3C[C@]3(c3ccc(F)cc3)C2)n1C (single isomer, unassigned) [Example 21 Enantiomer 1] | > 1 | –
Cc1ncoc1-c1nnc(SCCCN2C[C@@H]3C[C@]3(c3cc(F)cc(C(F)(F)F)c3)C2)n1C (single isomer, unassigned; enantiomer 1) [Example 110 Enantiomer 1] | > 1 | –
Cc1ncoc1-c1nnc(SCCCN2C[C@@H]3C[C@]3(c3cccc(C(F)(F)F)c3F)C2)n1C (single isomer, unassigned; enantiomer 2) [Example 111 Enantiomer 2] | > 1 | –
Cc1ncoc1-c1nnc(SCCCN2C[C@@H]3C[C@]3(c3ccc(C(F)(F)F)cc3F)C2)n1C.O=C(O)[C@H](O)[C@@H](O)C(=O)O [Example 123, (1S,5R)-1-[2-Fluoro-4-(trifluoromethyl)phenyl]-3-(3-{[4-methyl-5-(4-methyl-1,3-oxazol-5-yl)-4H-1,2,4-triazol-3-yl]thio}propyl)-3-azabicyclo[3.1.0]hexane tartrate] | – | inhibitory effect in non-stressed animals, in respect to controls ([2]; 3 mg/kg i.p., result in words, tartrate): did not show any inhibitory effect; also recorded: No significant effects; Chow Intake after 4 h [2, 3]: 1.92 ± 0.66 kcal; HP Intake after 4 h [2, 3]: 8.73 ± 2.75 kcal; Total Food Intake after 4 h [2, 3]: 10.65 ± 2.75 kcal; Chow Intake after 4 h [2, 4]: 1.95 ± 0.58 kcal; HP Intake after 4 h [2, 4]: 17.11 ± 2.49 kcal; Total Food Intake after 4 h [2, 4]: 19.06 ± 2.44 kcal; Chow Intake after 4 h [2, 5]: 2.09 ± 0.74 kcal; HP Intake after 4 h [2, 5]: 14.44 ± 2.15 kcal; Total Food Intake after 4 h [2, 5]: 16.54 ± 1.94 kcal; Chow Intake after 4 h [2, 6]: 2.62 ± 0.79 kcal; HP Intake after 4 h [2, 6]: 8.89 ± 1.90 kcal; Total Food Intake after 4 h [2, 6]: 11.51 ± 1.99 kcal; effect on total Food Intake ([2]; S/R rats, highest dose of 3 mg/kg, 1-way ANOVA, result in words): significantly decreased total food intake; effect on HP intake ([2]; S/R rats, highest dose of 3 mg/kg, Dunnett's p<0.01, result in words): significantly decreased HP intake; effect on Chow intake ([2]; S/R rats, highest dose of 3 mg/kg, Dunnett's p<0.05, result in words): significantly decreased chow Intake; effect on stress-induced overeating ([2]; result in words): significant inhibitory effect on stress-induced overeating

The next lines start with results.

fpKi (D3) higher than the other enantiomer [1] [log-unit] | SMILES | also measured
> 0.9 | Cc1ccc2c(-c3nnc(SCCCN4C[C@@H]5C[C@]5(c5ccc(C(C)(C)C)cc5)C4)n3C)cccc2n1 (single isomer, unassigned) [Example 5 Enantiomer 2] | –
> 1 | COc1ccc([C@]23C[C@H]2CN(CCCSc2nnc(-c4ocnc4C)n2C)C3)cc1C(C)=O (single isomer, unassigned) [Example 19 Enantiomer 1] | –
> 1 | Cc1ncoc1-c1nnc(SCCCN2C[C@]3(C)C[C@@]3(c3cccc(Cl)c3)C2)n1C (single isomer, unassigned) [Example 22 Enantiomer 1] | –
> 1 | Cc1ncoc1-c1nnc(SCCCN2C[C@@H]3C[C@]3(c3cccc(F)c3)C2)n1C (single isomer, unassigned) [Example 23 Enantiomer 1] | –
> 1 | COc1cccc([C@]23C[C@H]2CN(CCCSc2nnc(-c4ocnc4C)n2C)C3)c1 (single isomer, unassigned) [Example 24 Enantiomer 1] | –
> 1 | Cn1c(SCCCN2C[C@@H]3C[C@]3(c3ccc(OC(F)(F)F)cc3)C2)nnc1C1CCOCC1 (single isomer, unassigned) [Example 33 Enantiomer 1] | –
> 1 | Cc1ncoc1-c1nnc(SCCCN2C[C@@H]3C[C@]3(c3cc(C(F)(F)F)ccc3F)C2)n1C (single isomer, unassigned) [Example 36 Enantiomer 2] | –
> 2 | Cc1ncoc1-c1nnc(SCCCN2C[C@]3(C)C[C@@]3(c3ccc(C(F)(F)F)c(F)c3)C2)n1C (single isomer, unassigned) [Example 61 Enantiomer 1] | –
> 1 | CCC(=O)c1cc([C@]23C[C@H]2CN(CCCSc2nnc(-c4ocnc4C)n2C)C3)ccc1OC (single isomer, unassigned) [Example 71 Enantiomer 1] | –
> 1 | Cc1nc2cc([C@]34C[C@H]3CN(CCCSc3nnc(-c5ocnc5C)n3C)C4)ccc2s1 (single isomer, unassigned) [Example 72 Enantiomer 1] | –
> 1 | Cc1ncoc1-c1nnc(SCCCN2C[C@@H]3C[C@]3(c3ccc4c(cnn4C)c3)C2)n1C (single isomer, unassigned) [Example 74 Enantiomer 1] | –
> 1 | Cc1ncoc1-c1nnc(SCCCN2C[C@@H]3C[C@]3(c3ccc(C(F)(F)F)cn3)C2)n1C (single isomer, unassigned) [Example 96 Enantiomer 2] | –
> 1 | Cc1ncoc1-c1nnc(SCCCN2C[C@@H]3C[C@]3(c3ccc(OC(F)(F)F)cc3)C2)n1C (single isomer, unassigned; enantiomer 1) [Example 30 Enantiomer 1] | –
